Results taken from ChEMBL document CHEMBL1158606, “Synthesis and molecular modeling studies of 3-chloro-4-substituted-1-(8-hydroxy-quinolin-5-yl)-azetidin-2-ones as novel anti-filarial agents” (2010).
The source made the active and inactive calls. The rule behind the calls is not given here.

Assays:
Format in all cases: functional
Brugia malayi [1] = test: Antifilarial activity against Brugia malayi assessed as loss of motility at 80 ng/ml after 48 hrs by MTT assay
Brugia malayi [2] = test: Antifilarial activity against Brugia malayi assessed as loss of motility at 100 ng/ml after 48 hrs by MTT assay
Brugia malayi [3] = test: Antifilarial activity against Brugia malayi assessed as loss of motility at 60 ng/ml after 48 hrs by MTT assay
Brugia malayi [4] = test: Antifilarial activity against Brugia malayi assessed as loss of motility at 40 ng/ml after 48 hrs by MTT assay
Brugia malayi [5] = test: Antifilarial activity against Brugia malayi assessed as loss of motility at 20 ng/ml after 48 hrs by MTT assay

| SMILES | Activity (Brugia malayi [1]) [%] | Activity (Brugia malayi [2]) [%] | Activity (Brugia malayi [3]) | Activity (Brugia malayi [4]) | Activity (Brugia malayi [5]) |
| --- | --- | --- | --- | --- | --- |
| O=C1C(Cl)C(c2ccc(Br)cc2)N1c1ccc(O)c2ncccc12 (stereo not given) | 16 | 23 | 3% | inactive | inactive |
| O=C1C(Cl)C(c2ccc(F)cc2)N1c1ccc(O)c2ncccc12 (stereo not given) | 26 | 37 | 12% | inactive | inactive |
| O=C1C(Cl)C(c2ccccc2)N1c1ccc(O)c2ncccc12 (stereo not given) | 2 | 2 | inactive | inactive | inactive |
| CC1C(Cl)C(=O)N1c1ccc(O)c2ncccc12 (stereo not given) | 76 | 81 | 67% | 61% | 53% |
| O=C1C(Cl)C(c2ccc(Cl)cc2)N1c1ccc(O)c2ncccc12 (stereo not given) | 36 | 59 | 19% | 10% | inactive |
| COc1ccc(C2C(Cl)C(=O)N2c2ccc(O)c3ncccc23)cc1 (stereo not given) | 91 | 91 | 91% | 76% | 67% |
